From ChEMBL document CHEMBL3507680, “University of Dundee, Gates Library screen for HepG2 cell viability”

Experiment: Human HepG2 cell viability assay in 384 well format
Type: toxicity, cell-based
Design: dose 125 nL, time 70.5 hour; concentration not given beside the values
Conditions: HepG2 cells, read-out: Inhibition
In the case of `COc1ccc(C(C(=O)O)N(C)Cc2ccon2)cc1Cl` (stereo unspecified), the cytotoxicity at 70.5 h is reported as -4.56%. For `Fc1cnc(N2CCn3c(CN4CCCC4)nnc3C2)nc1`, the cytotoxicity at 70.5 h was -9.62%. Compound `O=C(NC1CC1)C1CNCCN1C(=O)COc1ccc2c(c1)OCO2` (stereo unspecified) has a cytotoxicity at 70.5 h of -5.08%. Compound `Cc1noc(C(C)C)c1C(=O)NCc1ccc(N(C)C)c(F)c1` has a cytotoxicity at 70.5 h of -9.82%. With `Cc1cnn(CC2CCCCN2C(=O)c2c(C)noc2C)c1` (stereo unspecified) the cytotoxicity at 70.5 h was -0.615%. Compound `Cc1cc(N(Cc2ccccn2)C2CC2)n2nc(C(F)(F)F)nc2n1` has a cytotoxicity at 70.5 h of -0.852%. In the case of `COC(=O)CCNC(=O)c1ccc(NC(=O)N(C)CC(C)(C)C)cc1`, the cytotoxicity at 70.5 h is reported as -6.05%. Work on `Cc1c(CN2CCCC(O)C2)[nH]c2ccc(F)cc12` (stereo unspecified) yielded a cytotoxicity at 70.5 h of 0.643%. With `O=C(CNCCn1cccn1)NCC1(c2ccccc2)CC1` the cytotoxicity at 70.5 h was -4.79%. In the case of `CC(C)(C)CC(=O)NCC(=O)Nc1ccn(Cc2ccccc2)n1`, the cytotoxicity at 70.5 h is reported as -11%. Work on `Oc1cccc(CN2CCN(c3nccc(CCC(F)(F)F)n3)CC2)c1` yielded a cytotoxicity at 70.5 h of -3.66%. `CN(C)CCN1CCOCC2(C1)CN(Cc1ccsc1)CCO2` (stereo unspecified) showed a cytotoxicity at 70.5 h of -9.68%. Compound `CCN(CC)C(CNC(=O)CCc1nc(C(C)C)no1)c1ccco1` (stereo unspecified) has a cytotoxicity at 70.5 h of -2.56%. Compound `Cc1nc(N2CCC3(CCOC3)C2)c2cc[nH]c2n1` (stereo unspecified) has a cytotoxicity at 70.5 h of 27.9%. Compound `CCc1noc(CS(=O)(=O)Cc2ccccc2C)n1` has a cytotoxicity at 70.5 h of 15%. `COC1CCN(c2cc(C(C)C)nc3ccnn23)C1` (stereo unspecified) showed a cytotoxicity at 70.5 h of 5.73%. Work on `Cc1ccc2oc(=O)n(CCC(=O)N3CCCC4(CNC(=O)O4)C3)c2c1` (stereo unspecified) yielded a cytotoxicity at 70.5 h of -1.82%. `Cc1cc(C)n2cc(CN3CCC(N4CCN(C)C4=O)CC3)nc2n1` showed a cytotoxicity at 70.5 h of -0.599%. Compound `Fc1ccc(CNCc2nnc3n2CC(C(F)(F)F)CC3)c(F)c1` (stereo unspecified) has a cytotoxicity at 70.5 h of -7.11%. Compound `O=C1CN(CC[C@@H](O)c2ccccc2)CCN1c1ccccc1Cl` has a cytotoxicity at 70.5 h of -7.1%. Compound `Cn1cccc1C(=O)N1CCO[C@H]2[C@H](OCc3cccnc3)CC[C@@H]21` has a cytotoxicity at 70.5 h of -7.88%. `COCCNC(=O)c1cc(S(=O)(=O)N2CCCCC2)cs1` showed a cytotoxicity at 70.5 h of -13.8%. Compound `CN(Cc1ccc(C#N)cc1)C(=O)c1ccnc(OC2CCC2)c1` has a cytotoxicity at 70.5 h of 16.3%. For `CCN(CC)S(=O)(=O)N1CCC(c2nccn2Cc2ccccn2)CC1`, the cytotoxicity at 70.5 h was 12.4%. Work on `COCCN1CCC(CNc2nc3ccccc3o2)CC1` yielded a cytotoxicity at 70.5 h of 1.47%. Compound `CCc1cc(N2CCC(Nc3ccc4nnc(C)n4n3)CC2)ncn1` has a cytotoxicity at 70.5 h of 2.09%. Work on `CC(C)Cc1cc(C(=O)NCCc2nnc(N)s2)n(C)n1` yielded a cytotoxicity at 70.5 h of -23.5%. `c1cncc(CNCCc2cccs2)c1` showed a cytotoxicity at 70.5 h of -9.29%. With `O=C1NC(C(=O)NCc2cccnc2Oc2ccccc2F)CO1` (stereo unspecified) the cytotoxicity at 70.5 h was -18.5%. `CCc1ccc(S(=O)(=O)Nc2cnccc2C)s1` gave a cytotoxicity at 70.5 h of -4.13%. For `Cc1cnc2c(S(=O)(=O)NCC3CCN(C4CC4)C3)cccc2c1` (stereo unspecified), the cytotoxicity at 70.5 h was -5.3%. Work on `Cc1nc(NC(=O)C2CCCN(C(=O)C3CC3)C2)sc1C` (stereo unspecified) yielded a cytotoxicity at 70.5 h of -14.8%. With `CC(C)CC(NC(=O)c1cc(-c2cccn2C)n[nH]1)c1ncnn1C` (stereo unspecified) the cytotoxicity at 70.5 h was -1.67%. With `O=c1[nH]c(CN2CCN(CC(F)(F)F)CC2)nc2ccccc12` the cytotoxicity at 70.5 h was -13.3%. In the case of `Cc1nn(C)c(C)c1CN(C)S(=O)(=O)c1c(C)n[nH]c1C`, the cytotoxicity at 70.5 h is reported as -5.08%. For `Cn1ncnc1CNC1CCCc2cc(F)ccc21` (stereo unspecified), the cytotoxicity at 70.5 h was -11.4%. With `Cc1nn(C)c(C)c1C1CCCN1C(=O)Cc1cn2ccsc2n1` (stereo unspecified) the cytotoxicity at 70.5 h was 23.9%. `CNS(=O)(=O)Cc1cccc(CNCc2ccsc2)c1` showed a cytotoxicity at 70.5 h of -8.06%. With `COc1ccc(S(=O)(=O)NC(=O)c2ccccc2F)cc1OC` the cytotoxicity at 70.5 h was 1.07%. With `CCN1CC(CN(C)Cc2nc(-c3ccc(F)cc3F)oc2C)CC1=O` (stereo unspecified) the cytotoxicity at 70.5 h was 2.47%. `CCc1c(C)nc(C)nc1N1C[C@@H](CN(C)CCN(C)C)[C@@H](CO)C1` showed a cytotoxicity at 70.5 h of -9.98%. Compound `CCN(C)S(=O)(=O)NCC1(c2ccccc2Br)CC1` has a cytotoxicity at 70.5 h of 4.86%. Work on `Cc1occc(=O)c1OCC(=O)N1CCN(c2cccc(Cl)c2)CC1` yielded a cytotoxicity at 70.5 h of 2.39%. Work on `O=C(NCC1(O)COCCN(Cc2ccc(O)cc2)C1)c1cnccn1` (stereo unspecified) yielded a cytotoxicity at 70.5 h of -9.12%. In the case of `Cc1cc(C)cc(OCCN(C)C(=O)NC(C)c2nncn2C)c1` (stereo unspecified), the cytotoxicity at 70.5 h is reported as 17.7%. Compound `CCC(=O)N1Cc2nnc(C3CCOCC3)n2C(Cc2c[nH]cn2)C1` (stereo unspecified) has a cytotoxicity at 70.5 h of -7.01%. Work on `CCNC(=O)CCN1CCC(c2cc(N3CCOCC3)nc(C)n2)CC1` yielded a cytotoxicity at 70.5 h of -7.37%. With `CC(C)C(C)N(C(=O)Cn1nc2n(c1=O)CCCCC2)C1CC1` (stereo unspecified) the cytotoxicity at 70.5 h was -11.4%. In the case of `Cc1ccc2cc(C(=O)N3CCN(C(=O)N(C)C)CC3)ccc2n1`, the cytotoxicity at 70.5 h is reported as -2.65%. Work on `O=C(NCC1Cn2nnc(-c3ccsc3)c2CO1)c1ccc[nH]1` (stereo unspecified) yielded a cytotoxicity at 70.5 h of 1.74%. `CS(=O)(=O)N1CCC(NC(=O)COc2ccc(Cl)c(Cl)c2)CC1` gave a cytotoxicity at 70.5 h of -8.67%. With `CCn1cc(-c2cc(C(F)(F)F)nc(NC3CCCC3)n2)c(C)n1` the cytotoxicity at 70.5 h was -6.79%. `COc1ccc(C[C@H]2CN(C(=O)C3CC3)CC[C@H]2OC)cc1` showed a cytotoxicity at 70.5 h of 21.5%. For `Cc1nc(-c2ccccc2)n(CC(=O)NC(C)C2CC2)n1` (stereo unspecified), the cytotoxicity at 70.5 h was -5.73%. `Cc1[nH]nc2ncc(C(=O)N3CCN(CCC(C)C)CC3)cc12` showed a cytotoxicity at 70.5 h of 25.8%. Work on `Cc1ccc(CN2CCC3(C2)C(=O)N(CC2CC2)c2ccccc23)s1` (stereo unspecified) yielded a cytotoxicity at 70.5 h of -8.57%. `O=C(NCc1csc(Br)c1)N1CCOCC1` gave a cytotoxicity at 70.5 h of -4.76%. `COc1cccc(OCC2CCCN(Cc3ccncc3)C2)c1` (stereo unspecified) gave a cytotoxicity at 70.5 h of -10.6%. For `COc1ccc(-c2c(C)nn3c(=N)c(C#N)n[nH]c23)cc1OC`, the cytotoxicity at 70.5 h was -15.3%. In the case of `Cc1nc(CN2CCC3(C2)CN(C(=O)c2conc2C)C3)cs1`, the cytotoxicity at 70.5 h is reported as -3.94%. `CC1(C2CCN(CCCC(=O)O)CC2)CN(Cc2ccccc2)C(=O)O1` (stereo unspecified) gave a cytotoxicity at 70.5 h of 2.48%. `Fc1cnc(N2CCCn3c(nnc3Cn3cccn3)C2)nc1` gave a cytotoxicity at 70.5 h of 12.7%. With `CCSc1cc(C(=O)NCCNC(=O)Cc2ccccc2)ccn1` the cytotoxicity at 70.5 h was -117%. In the case of `Cc1csc(CNCC2CCCN(C(=O)OC(C)(C)C)C2)n1` (stereo unspecified), the cytotoxicity at 70.5 h is reported as -1.06%. For `C[C@@H](O)CNc1c(NCc2ccco2)c(=O)c1=O`, the cytotoxicity at 70.5 h was -12.9%. With `Cc1noc(C)c1CC(=O)N1CCC(c2ccn3nccc3n2)CC1` the cytotoxicity at 70.5 h was 0.22%. Work on `CN1CCN(c2cccc(Cl)c2CNCCS(C)(=O)=O)CC1` yielded a cytotoxicity at 70.5 h of -8.06%. `Cc1ccc(CN2Cc3nnn(C)c3C(COCC3CC3)C2)s1` (stereo unspecified) gave a cytotoxicity at 70.5 h of 4.45%. Compound `O=C1NC2(Cc3ccccc31)CN(CC1CCOCC1)C2` has a cytotoxicity at 70.5 h of 25.2%. `O=C(CN1CCCCCC1)NCc1cccnc1Oc1ccccc1` gave a cytotoxicity at 70.5 h of -2.72%. `Cc1cnc(N2CCC[C@@H]3CN(S(C)(=O)=O)C[C@@H]32)nc1` showed a cytotoxicity at 70.5 h of -14.9%. `CC(C)CCn1[nH]c(CNc2ccc(Cl)cc2)nc1=O` showed a cytotoxicity at 70.5 h of 0.442%. Work on `CN(C)C(CNC(=O)NCCOc1ccccc1)c1ccco1` (stereo unspecified) yielded a cytotoxicity at 70.5 h of 13%. With `Cc1nn(C)cc1C(=O)NCc1cc(N(C)C)nc2ccccc12` the cytotoxicity at 70.5 h was -0.83%. With `CC(C)[C@@H]1CN(C(=O)CCn2ccccc2=O)C[C@H]1NS(C)(=O)=O` the cytotoxicity at 70.5 h was -7.19%. Work on `O=C(NCc1ccccc1Cn1ccnc1)N1CCSCC1` yielded a cytotoxicity at 70.5 h of -6.06%. Compound `Cc1ccc2c(c1)C(=O)NCC1(CCN(C(=O)c3scnc3C)CC1)O2` has a cytotoxicity at 70.5 h of -6.59%. For `CN1[C@@H](C(=O)NCC2CC2)C[C@@H]2CN(Cc3ccoc3)C[C@@H]21`, the cytotoxicity at 70.5 h was 13.7%. `COCC(=O)NCc1cc(=O)n2c(n1)CN(Cc1ccsc1)CCC2` gave a cytotoxicity at 70.5 h of -12.5%. With `CN1CCC(N[C@@H]2CO[C@H](CNC(=O)c3cccs3)[C@H]2O)CC1` the cytotoxicity at 70.5 h was -6.9%. In the case of `COc1ncccc1CNC(=O)N(Cc1ccccc1F)C1CC1`, the cytotoxicity at 70.5 h is reported as -0.0541%.
